Test results as given in patent publication US9102925B2, “Compositions and methods for treating or preventing conditions and diseases associated with Mannheimia haemolytica” (Washington State University, priority 2009, dated 2015).
Where “and” joins values, the source holds several entries; their conditions need not be identical. Identical values can stand only once. Entries after “also recorded” stand apart in the source; their conditions may differ. Peptide text beside a SMILES is read from it.

Columns and labels:
[1] = target: T1, M. haemolytica leukotoxin (Lkt) (Mannheimia haemolytica, UniProt P16535); experiment: cell-based
[2] = target: T1, M. haemolytica leukotoxin (Lkt)
[3] = system: M. haemolytica serotype-1 strain SH789; experiment: Calf challenge model: endobronchial inoculation of M. haemolytica with or without peptide; type: in vivo, Mannheimia haemolytica; conditions: for Gross pneumonic lesions as % of total lung volume, Lesion (%), individual calf: 2 mg peptide with 5×10^9 CFU M. haemolytica endobronchially, necropsy 90 hours post-inoculation; for Number of M. haemolytica isolated from the lungs at necropsy, individual calf / Number of M. haemolytica isolated from the lungs at necropsy, Mean / Gross pneumonic lesions as % of total lung volume, Mean (%): 2 mg peptide with 5×10^9 CFU endobronchially; for Duration of nasal discharge post-inoculation: study period 90 hours; for Number of M. haemolytica isolated from the lungs at necropsy, Mean: group mean; for Number of M. haemolytica isolated from the lungs at necropsy, Mean / Gross pneumonic lesions as % of total lung volume, Mean (%): 4 calves; for Gross pneumonic lesions as % of total lung volume, Mean (%): group mean±SEM, 90 hours
Description: M. Haemolytica serotype-1 strain SH789, isolated from the pneumonic lung of a calf, was streaked on blood agar plate and incubated overnight at 37° C. The following day few colonies were transferred to 3 ml of pre-warmed brain heart infusion (BHI) broth and incubated for 3 hours at 37° C. with constant shaking (200 cycles/minute). Two BHI agar plates were ‘lawned’ with this bacterial culture using sterile cotton swabs and incubated overnight at 37° C. The following day (day of inoculation) M. haemolytica was harvested from the BHI agar plates and transferred to 40 ml of pre-warmed BHI broth in a 250 ml flask, and incubated for 2.5 hours at 37° C. with constant shaking to obtain cultures in the logarithmic phase of growth. The culture was centrifuged at 6000×g at 20° C. for 30 minutes and the pellet was washed once with RPMI 1640 (without phenol red) medium. The bacterial pellet was re-suspended in 4 ml of RPMI 1640 (without phenol red), and 1 ml of this culture was added to 50 ml of pre-warmed RPMI 1640 (without phenol red) containing L-glutamine (1 ml L-glutamine/100 ml RPMI) in a 250 ml flask. Bacteria were incubated for 3 hours at 37° C. with constant shaking to obtain logarithmic phase culture and the optical density (OD) was measured. The culture was appropriately diluted to obtain a concentration of 1×10^9 CFU of M. haemolytica per ml. Five ml of this preparation per calf was used for endobronchial challenge. The bacterial concentration was confirmed the following day by culturing diluted aliquots of the inoculum on BHI agar and counting the resulting colonies.
The peptide (P17) containing amino acids 5-17 of bovine CD18 (NH2-RPQLLLLAGLLAL-OH) (SEQ ID NO.:71), and the peptide (PSC) containing the same amino acids as peptide P17 but in a randomly scrambled sequence (NH2-LRALLPLQLLAGL-OH) (SEQ ID NO.:72), were synthesized at Neopeptide (Cambridge, Mass.). Both peptides were re-suspended in dimethysulfoxide (ATCC) at a concentration of 20 mg/ml and stored at −20° C. until used. Based on the results of in vitro neutralization of Lkt by peptide P17, each calf was endobronchially inoculated with 2 mg of peptide in 5 ml of RPMI mixed with 5×10^9 CFU of M. haemolytica in 5 ml of RPMI.
All experimental protocols were approved by the Institutional Animal Care and Use Committee (IACUC) at Washington State University before the onset of the study. Twelve Holstein calves were randomly assigned to three experimental groups. Calves were matched for age when assigned into three groups. Prior to inoculation, serum samples and pharyngeal and nasal swabs were collected from all the calves. Group I calves received endobronchial injections of 5×10^9 CFU of M. haemolytica in 10 ml of RPMI. Group II calves received 5×10^9 CFU of M. haemolytica and 2 mg of peptide PSC in 10 ml of RPMI. Group III calves received 5×10^9 CFU of M. haemolytica and 2 mg of peptide P17 in 10 ml of RPMI. The inoculum was flushed down with an additional 10 ml of RPMI in all calves. Clinical disease in each calf was scored at different time points post-inoculation.
Physical examination of each calf was performed immediately prior to experimental infection and at 6, 18, 24, 42, 48, 66, 72, and 90 hours post-inoculation. Signs of clinical disease were allocated points according to the scoring system followed by Malazdrewich et al (2003; Table 3).
On necropsy lungs were removed and gross pneumonic lesion development in each lobe of lung was observed. The entire lung from each animal was sliced at 1 cm thickness and the total and pneumonic lesion areas were traced onto transparent acetate sheets. The traced portions were scanned into ImgaeJ, NIH Image (National Institute of Health; Nethesda, Md.), which was used to measure areas representing both the total serial section and the gross pneumonic lesions within it. […]

Compound	IC50 [1] [µM]	Leukotoxic activity of supernatant fluids from M. haemolytica cultures incubated with peptide [2]	Gross pneumonic lesions as % of total lung volume, Lesion (%), individual calf ([3]; calves)	Number of M. haemolytica isolated from the lungs at necropsy, individual calf ([3]; calves, necropsy 90 hours)	Duration of nasal discharge post-inoculation ([3]; calves)	Number of M. haemolytica isolated from the lungs at necropsy, Mean ([3]; necropsy 90 hours)	Gross pneumonic lesions as % of total lung volume, Mean (%) [3] [%]	Inhibition of Lkt-induced cytolysis of bovine PMNs [1]	Inhibition of Lkt-induced cytolysis of ruminant leukocytes [1]	M. haemolytica in lungs, fold less than in Group I (bacteria only) and Group II (PSC) ([3]; calves, necropsy 90 hours, P<0.001)	Gross pneumonic lesions (percent lung volume) compared between groups ([3]; calves, necropsy 90 hours, P=0.9)	Mean clinical score compared with other groups at 24 hours post-inoculation ([3]; calves, 24 hours post-inoculation, P<0.05)	Total clinical disease scores compared with Group I and II ([3]; calves, scored 6 to 90 hours post-inoculation)
CC(C)C[C@H](NC(=O)CNC(=O)[C@H](C)NC(=O)[C@H](CC(C)C)NC(=O)[C@H](CC(C)C)NC(=O)[C@H](CC(C)C)NC(=O)[C@H](CC(C)C)NC(=O)[C@H](CCC(N)=O)NC(=O)[C@@H]1CCCN1C(=O)[C@@H](N)CCCNC(=N)N)C(=O)N[C@@H](CC(C)C)C(=O)N[C@@H](C)C(=O)N[C@@H](CC(C)C)C(=O)N[C@@H](CCC(N)=O)C(=O)N[C@@H](CO)C(=O)N[C@H](C(=O)N[C@@H](CC(C)C)C(=O)N[C@@H](CO)C(=O)N[C@@H](CCC(N)=O)C(=O)N[C@@H](CCC(=O)O)C(=O)O)C(C)C [P5] (H-RPQLLLLAGLLALQSVLSQE-OH)	5.55												
NH2-LRALLPLQLLAGL-OH (H-LRALLPLQLLAGL-OH) [PSC, reference compound]		had significant leukotoxic activity	4.07% and 10.70% and 9.01% and 24.57%	1.89 × 10^7 CFU per gram of lung tissue and 6.73 × 10^5 CFU per gram of lung tissue and 6.50 × 10^7 CFU per gram of lung tissue and 1.87 × 10^7 CFU per gram of lung tissue	throughout the study period	2.58 ± 1.374 × 10^7 CFU per gram of lung tissue	12.09 ± 4.39						
CSCC[C@H](N)C(=O)N[C@@H](CC(C)C)C(=O)N[C@@H](CCCNC(=N)N)C(=O)N[C@@H](CCC(N)=O)C(=O)N[C@@H](CCCNC(=N)N)C(=O)N1CCC[C@H]1C(=O)N[C@@H](CCC(N)=O)C(=O)N[C@@H](CC(C)C)C(=O)N[C@@H](CC(C)C)C(=O)N[C@@H](CC(C)C)C(=O)N[C@@H](CC(C)C)C(=O)N[C@@H](C)C(=O)NCC(=O)N[C@@H](CC(C)C)C(=O)N[C@@H](CC(C)C)C(=O)N[C@@H](C)C(=O)N[C@@H](CC(C)C)C(=O)N[C@@H](CCC(N)=O)C(=O)N[C@@H](CO)C(=O)N[C@H](C(=O)O)C(C)C [P1] (H-MLRQRPQLLLLAGLLALQSV-OH)	11.6												
NH2-RPQLLLLAGLLAL-OH (H-RPQLLLLAGLLAL-OH; listed as Bos taurus) [P17]		did not exhibit significant leukotoxic activity	15.67% and 2.7% and 13.22% and 8.51%	5.29 × 10^3 CFU per gram of lung tissue and 4.92 × 10^2 CFU per gram of lung tissue and 5.70 × 10^4 CFU per gram of lung tissue and 8.00 × 10^2 CFU per gram of lung tissue	up to 24 hours	1.589 ± 1.374 × 10^4 CFU per gram of lung tissue	10.53 ± 3.02	strongly inhibited	effectively inhibited	100- to 1000 fold and 100 to 1000 fold	not statistically significant; also recorded: no less than those in calves inoculated with the control peptide PSC	statistically significantly lower	lower than those for group I and II at all time points except 48 hours
